Here are results for 15 compounds from US6762170B1, “2-(purin-9-yl)-tetrahydrofuran-3,4-diol derivatives” (SmithKlineBeecham Corporation, priority 1998, dated 2004).

Common to all, as to type: cell-based
For one experiment, the target named is T1, Adenosine 3 receptor (Homo sapiens, UniProt P0DMS8).
T1 construct: expressed in transfected cells; host or cells: Chinese hamster ovary (CHO) cells, co-transfected with a CRE-SPAP reporter
T1 sequence (P0DMS8 1-318): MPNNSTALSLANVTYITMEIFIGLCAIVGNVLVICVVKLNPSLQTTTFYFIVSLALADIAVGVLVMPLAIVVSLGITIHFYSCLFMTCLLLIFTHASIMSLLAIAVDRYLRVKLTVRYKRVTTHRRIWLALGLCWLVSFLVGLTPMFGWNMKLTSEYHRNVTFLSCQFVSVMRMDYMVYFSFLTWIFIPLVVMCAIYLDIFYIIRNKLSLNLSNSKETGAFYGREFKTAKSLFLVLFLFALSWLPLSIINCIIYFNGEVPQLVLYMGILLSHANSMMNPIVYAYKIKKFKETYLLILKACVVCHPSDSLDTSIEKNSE
The experiment in a line: Agonist activity against adenosine 3 receptor subtype (CHO cells, forskolin-enhanced cAMP, SPAP reporter). The conditions noted are these: EC50 ratio to NECA; transfected CHO cells, forskolin-enhanced cAMP reflected by SPAP. How it is done:
(§1) (1) Agonist Activity Against Adenosine 2a, Adenosine 1 and Adenosine 3 Receptor Subtypes.
(§2) Agonist selectivity of compounds against other human adenosine receptors is determined using Chinese hamster ovary (CHO) cells transfected with the gene for the relevant human adenosine receptor following a method based on that of Castanon and Spevak, 1994. The CHO cells are also transfected with cyclic AMP response elements promoting the gene for secreted placental alkaline phosphatase (SPAP) (Wood, 1995). The effect of test compounds may be determined by their effects on basal levels of cAMP (A2a) or on forskolin-enhanced cAMP (A1 and A3) as reflected by changes in levels of SPAP. EC50 values for compounds may then be determined as a ratio to that of the non-selective agonist N-ethyl carboxamide adenosine (NECA).
(§3) Values given in the Table are EC50 values as a ratio of that of NECA.

For the next experiment, the target named is T2, Adenosine 1 receptor (Homo sapiens, UniProt P30542).
T2 construct: expressed in transfected cells; host or cells: Chinese hamster ovary (CHO) cells, co-transfected with a CRE-SPAP reporter
T2 sequence (P30542 1-326): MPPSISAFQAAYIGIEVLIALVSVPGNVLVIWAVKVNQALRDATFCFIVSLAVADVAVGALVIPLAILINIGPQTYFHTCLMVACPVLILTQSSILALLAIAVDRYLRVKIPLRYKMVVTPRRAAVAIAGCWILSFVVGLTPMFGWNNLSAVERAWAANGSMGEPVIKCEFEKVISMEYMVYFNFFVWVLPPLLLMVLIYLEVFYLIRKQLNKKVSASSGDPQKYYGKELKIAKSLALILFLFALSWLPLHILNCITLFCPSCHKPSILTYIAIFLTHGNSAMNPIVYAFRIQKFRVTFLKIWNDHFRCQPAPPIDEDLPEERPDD
Briefly: Agonist activity against adenosine 1 receptor subtype (CHO cells, forskolin-enhanced cAMP, SPAP reporter). The conditions noted are these: EC50 ratio to NECA; transfected CHO cells, forskolin-enhanced cAMP reflected by SPAP. As to the method:
as §1, §2, §3

The target of the next experiment is T3, Adenosine 2a receptor (Homo sapiens, UniProt P29274).
T3 construct: expressed in transfected cells; host or cells: Chinese hamster ovary (CHO) cells, co-transfected with a CRE-SPAP reporter
T3 sequence (P29274 whole entry): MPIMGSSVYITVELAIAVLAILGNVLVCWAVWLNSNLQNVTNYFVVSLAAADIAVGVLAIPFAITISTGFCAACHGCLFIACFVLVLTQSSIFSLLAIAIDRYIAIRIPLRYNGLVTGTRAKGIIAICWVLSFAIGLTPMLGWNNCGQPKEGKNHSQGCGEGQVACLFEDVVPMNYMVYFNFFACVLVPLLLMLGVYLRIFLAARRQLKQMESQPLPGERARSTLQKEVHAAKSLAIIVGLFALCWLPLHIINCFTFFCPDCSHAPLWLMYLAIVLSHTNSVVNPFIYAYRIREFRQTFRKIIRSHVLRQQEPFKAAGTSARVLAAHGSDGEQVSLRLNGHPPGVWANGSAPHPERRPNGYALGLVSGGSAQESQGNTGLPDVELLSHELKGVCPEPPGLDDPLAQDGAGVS
Briefly: Agonist activity against adenosine 2a receptor subtype (CHO cells, cAMP response element/SPAP reporter). The conditions noted are these: EC50 ratio to NECA; transfected CHO cells, basal cAMP reflected by SPAP. How it is done:
as §1, §2, §3

Where a name gives a salt, the structure may show the parent alone. Bounds are passed on as bounds.

Turning to `CCc1cc([C@H]2O[C@@H](n3cnc4c(NCC(c5ccccc5)c5ccccc5)nc(NCCN5CCCCC5)nc43)[C@H](O)[C@@H]2O)on1.O=CO.O=CO` [Example 1, (2R,3R,4S,S)-2-[6-(2,2-Diphenyl-ethylamino)-2-(2-piperidin-1-yl-ethylamino)-purin-9-yl]-5-(3-ethyl-isoxazol-5-yl)-tetrahydro-furan-3,4-diol diformate], at Adenosine 3 receptor, the “A3 (EC50 values as a ratio of that of NECA)” value is reported as over 436. Besides, the “A1 (EC50 values as a ratio of that of NECA)” value at Adenosine 1 receptor is recorded as 288.5. Also, the “A2a (EC50 values as a ratio of that of NECA)” value at Adenosine 2a receptor stood at 0.52.
For `CCc1cc(C2OC(n3cnc4c(NC5CCN(C(C)=O)CC5)nc(NC5CCC(N)CC5)nc43)C(O)C2O)on1` (stereo not drawn) [Example 29, 1-(4-{2-(trans-4-Amino-cyclohexylamino)-9-[5S-(3-ethyl-isoxazol-5-yl)-3R,4S-dihydroxy-tetrahydro-furan-2R-yl]-9H-purin-6-ylamino}-piperidin-1-yl)-ethanone diformate], in that order: over 298, 27.24 and 5.03.
The like results for `CCc1cc(C2OC(n3cnc4c(NC(CO)Cc5ccccc5)nc(NCCN5CCCC5)nc43)C(O)C2O)on1` [Example 63, (2S,3S,4R,5R)-2-(3-Ethyl-isoxazol-5-yl)-5-[6-(1S-hydroxymethyl-2-phenyl-ethylamino)-2-(2-pyrrolidin-1-yl-ethylamino)-purin-9-yl]-tetrahydro-furan-3,4-diol diformate] were, in that order, over 262, 148.43 and 10.57.
The like results for `CCc1cc(C2OC(n3cnc4c(NC(CC)CC)nc(NC5CCN(Cc6ccccc6)C5)nc43)C(O)C2O)on1` [Example 49, (2R,3R,4S,5S)-2-[2-(1-Benzyl-pyrrolidin-3S-1-ylamino)-6-(1-ethyl-propylamino)purin-9-yl]-5-(3-ethyl-isoxazol-5-yl)-tetrahydro-furan-3,4-diol formate] were, in that order, over 350, 28.28 and 7.79.
For the compound `CCc1cc(C2OC(n3cnc4c(NC(CO)Cc5ccccc5)nc(NCCN)nc43)C(O)C2O)on1` [Example 64, (2R,3R,4S,5S)-2-[2-(2-Amino-ethylamino)-6-(1S-hydroxymethyl-2-phenyl-ethylamino)-purin-9-yl]-5-(3-ethyl-isoxazol-5-yl)-tetrahydro-furan-3,4-diol diformate], on Adenosine 3 receptor, the “A3 (EC50 values as a ratio of that of NECA)” value is over 262. The “A1 (EC50 values as a ratio of that of NECA)” value on Adenosine 1 receptor was determined as 44.21. The “A2a (EC50 values as a ratio of that of NECA)” value at Adenosine 2a receptor was 16.03.
With `CCC(CC)Nc1nc(NCCN2CCCCC2)nc2c1ncn2C1OC(c2cc(Br)no2)C(O)C1O.O=CO.O=CO` [Example 67, (2S,3S,4R,5R)-2-(3-Bromo-isoxazol-5-yl)-5-[6-(1-ethyl-propylamino)-2-(2-piperidin-1-yl-ethylamino)-purin-9-yl]-tetrahydro-furan-3,4-diol diformate], the “A3 (EC50 values as a ratio of that of NECA)” value at Adenosine 3 receptor is over 238. Moreover, the “A1 (EC50 values as a ratio of that of NECA)” value on Adenosine 1 receptor is recorded as 219.1. On Adenosine 2a receptor, the “A2a (EC50 values as a ratio of that of NECA)” value is listed as 2.59.
Turning to `CCc1cc(C2OC(n3cnc4c(NC(CC)CC)nc(NC5CCC(N)CC5)nc43)C(O)C2O)on1.O=CO.O=CO` [Example 39, (2R,3R,4S,5S)-2-[2(trans-4-Amino-cyclohexylamino)-6(1-ethyl-propylamino)-purin-9-yl]-5-(3-ethyl-isoxazol-5-yl)-tetrahydro-furan-3,4-diol diformate], the “A3 (EC50 values as a ratio of that of NECA)” value at Adenosine 3 receptor is reported as over 85. Besides, the “A1 (EC50 values as a ratio of that of NECA)” value at Adenosine 1 receptor stood at 86.8. On Adenosine 2a receptor, the “A2a (EC50 values as a ratio of that of NECA)” value is 2.12.
The like results for “(2R,3R,4S,5S)-2-{6-(1-Ethyl-propylamino)-2-[2-(1-methyl-1H-imidazol-4-yl)-ethylamino]-purin-9-yl}-5-(3-propyl-isoxazol-5-yl)-tetrahydro-furan-3,4-diol diformate [Example 60]” were, in that order, “≧248.4”, 155.86 and 4.53.
`CCc1cc(C2OC(n3cnc4c(NCCC5CCCCC5)nc(NCCc5cn(C)cn5)nc43)C(O)C2O)on1.O=CO.O=CO` [Example 21, (2R,3R,4S,5S)-2-{6-(2-Cyclohexyl-ethylamino)-2-[2-(1-methyl-1H-imidazol-4-yl)-ethylamino]-purin-9-yl}5-(3-ethyl-isoxazol-5-yl)-tetrahydro-furan-3,4-diol diformate]: the “A3 (EC50 values as a ratio of that of NECA)” value on Adenosine 3 receptor is given as over 267. Also, the “A1 (EC50 values as a ratio of that of NECA)” value at Adenosine 1 receptor came out at 1624.29. The “A2a (EC50 values as a ratio of that of NECA)” value on Adenosine 2a receptor was 1.55.
On to `CCC(CC)Nc1nc(NCCN2CCCCC2)nc2c1ncn2C1OC(c2cc(CO)no2)C(O)C1O.O=CO.O=CO` [Example 57, (2R,3R,4S,5S)-2-[6-(1-Ethyl-propylamino)-2-(2-piperidin-1-yl-ethylamino)-purin-9-yl]-5-(3-hydroxymethyl-isoxazol-5-yl)-tetrahydro-furan-3,4-diol diformate], for which, at Adenosine 3 receptor, the “A3 (EC50 values as a ratio of that of NECA)” value is given as over 525. Moreover, the “A1 (EC50 values as a ratio of that of NECA)” value on Adenosine 1 receptor amounted to 80.76. For the same compound, the “A2a (EC50 values as a ratio of that of NECA)” value on Adenosine 2a receptor is 0.79.
`CCc1cc(C2OC(n3cnc4c(NC(CO)C(C)C)nc(NC(CO)Cc5ccccc5)nc43)C(O)C2O)on1` [Example 72, (2S,3S,4R,5R)-2-(3-Ethyl-isoxazol-5-yl)-5-{6-(1S-hydroxymethyl-2-methyl-propylamino)-2-(1S-hydroxymethyl-2-phenyl-ethylamino)-purin-9-yl}-tetrahydro-furan-3,4-diol diformate]: at Adenosine 3 receptor, the “A3 (EC50 values as a ratio of that of NECA)” value is given as over 158. For the same compound, the “A1 (EC50 values as a ratio of that of NECA)” value on Adenosine 1 receptor came out at 23.79. Moreover, at Adenosine 2a receptor, the “A2a (EC50 values as a ratio of that of NECA)” value was determined as 5.39.
The like results for `CCc1cc(C2OC(n3cnc4c(NCCC5CCCCC5)nc(NC(CO)Cc5ccccc5)nc43)C(O)C2O)on1` [Example 22, (2R,3R,4S,5S)-2-[6-(2-Cyclohexyl-ethylamino)-2-(1 S-hydroxy-methyl-2-phenyl-ethylamino)-purin-9-yl]-5-(3-ethyl-isoxazol-5-yl)-tetrahydro-furan-3,4-diol formate] were, in that order, over 254, 8026.2 and 9.17.
The like results for `CCc1cc(C2OC(n3cnc4c(NCCS(=O)(=O)NC)nc(NC(CO)Cc5ccccc5)nc43)C(O)C2O)on1` (stereo not drawn) [Example 27, 2-[9-[5S-(3-Ethyl-isoxazol-5-yl)-3R,4S-dihydroxy-tetrahydro-furan-2R-yl]-2-(1S-hydroxymethyl-2-phenyl-ethylamino)-9H-purin-6-ylamino]-ethanesulfonic acid methylamide formate] were, in that order, over 273, 3.18 and 3.
The like results for `CCc1cc(C2OC(n3cnc4c(NC(CO)C(C)C)nc(NCCN5CCCC5)nc43)C(O)C2O)on1` [Example 69, (2S,3S,4R,5R)-2-(3-Ethyl-isoxazol-5-yl)-5-[6-(1S-hydroxymethyl-2-methyl-propylamino)-2-(2-pyrrolidin-1-yl-ethylamino)-purin-9-yl]-tetrahydro-furan-3,4-diol diformate] were, in that order, over 180, 298.75 and 23.73.
Turning to `CCc1cc(C2OC(n3cnc4c(NCCS(=O)(=O)NC)nc(NCCNC(=N)N)nc43)C(O)C2O)on1` (stereo not drawn) [Example 25, 2-[2-9-[5S-(3-Ethyl-isoxazol-5-yl)-3R,4S-dihydroxy-tetrahydro-furan-2R-yl]-2-(2-guanidino-ethylamino)-9H-purin-6-ylamino]-ethanesulfonic acid methylamide diformate], the “A3 (EC50 values as a ratio of that of NECA)” value at Adenosine 3 receptor is over 198. In addition, the “A1 (EC50 values as a ratio of that of NECA)” value at Adenosine 1 receptor came to 103.8. Moreover, on Adenosine 2a receptor, the “A2a (EC50 values as a ratio of that of NECA)” value came to 5.46.
